Source: US20150010928A1, “MEANS AND METHODS FOR ASSESSING AN ENDOCRINE DISEASE OR DISORDER” (priority 2012, published 2015)
Marks after values point to notes of the source that are not given here.

Test system: male rats
Test: Plasma metabolite profiling (GC-MS, LC-MS, SPE-LC-MS) in male rats dosed once daily over 28 days (OECD 407)
Assay type: in vivo, rat
Conditions: high dose; for Mannose: Table 15c
Summary of the method: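 Metabolites were measured by GC-MS (derivatised) and reversed-phase LC-MS, with steroids by online SPE-LC-MS, in plasma drawn from fasted rats on days 7, 14 and 28 of once-daily dosing (5/sex/group). Values are ratios versus sex-matched untreated controls, normalized to pool samples, with Welch-test p-values.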

With `C[C@]12CCC(=O)C=C1CC[C@@H]1[C@@H]2CC[C@@]2(C)[C@H]1CC[C@]2(C)O` [17-alpha-Methyltestosterone] the Mannose (m7, male rats) was 1.14 *, the “3,4-Dihydroxyphenylacetic acid (DOPAC)” value (m7, male rats, Table 15d) was 0.6 * and the 18-Hydroxy-11-deoxycorticosterone (m7, male rats, Table 15d) was 0.35 *. For the same compound, the “Glycerol phosphate, lipid fraction” value (m7, male rats, Table 15d) was 0.28 *, the “Homovanillic acid (HVA)” value (m7, male rats, Table 15d) was 0.74 * and the “Lysophosphatidylcholine (C18:1)” value (m7, male rats, Table 15d) was 0.66 *. For the same compound, the “Lysophosphatidylethanolamine (C22:5)” value (m7, male rats, Table 15d) was 0.77 *, the “Phosphate, lipid fraction” value (m7, male rats, Table 15d) was 0.51 * and the “Phosphatidylcholine (C18:0,C18:1)” value (m7, male rats, Table 15d) was 0.78. The “Sphingomyelin (d18:1, C16:0)” value (m7, male rats, Table 15d) was 0.34 *, the “Sphingomyelin (d18:1,C23:0)” value (m7, male rats, Table 15d) was 0.49 * and the “Sphingomyelin (d18:1,C24:0)” value (m7, male rats, Table 15d) was 0.46 *. For the same compound, the “Sphingomyelin (d18:2,C18:0)” value (m7, male rats, Table 15d) was 0.4, the “TAG No 02” value (m7, male rats, Table 15d) was 0.41 * and the “myo-Inositol, lipid fraction” value (m7, male rats, Table 15d) was 0.4 *. For the same compound, the Cholesterol (m7, Table 14b) was 0.29, the “Choline plasmalogen No 02” value (m7, Table 14b) was 0.55 and the “Lignoceric acid (C24:0)” value (m7, Table 14b) was 0.28. For the same compound, the “Sphingomyelin (d18:1, C16:0)” value (m7, Table 14b) was 0.34, the “Sphingomyelin (d18:2, C16:0)” value (m7, Table 14b) was 0.39 and the “erythro-Sphingosine (d18:1)” value (m7, Table 14b) was 0.17. The Mannose (m14, male rats) was 1.03, the “3,4-Dihydroxyphenylacetic acid (DOPAC)” value (m14, male rats, Table 15d) was 0.69 * and the 18-Hydroxy-11-deoxycorticosterone (m14, male rats, Table 15d) was 0.94. For the same compound, the “Glycerol phosphate, lipid fraction” value (m14, male rats, Table 15d) was 0.63 *, the “Homovanillic acid (HVA)” value (m14, male rats, Table 15d) was 0.68 * and the “Lysophosphatidylcholine (C18:1)” value (m14, male rats, Table 15d) was 0.78 *. The “Lysophosphatidylethanolamine (C22:5)” value (m14, male rats, Table 15d) was 0.88 *, the “Phosphate, lipid fraction” value (m14, male rats, Table 15d) was 0.64 * and the “Phosphatidylcholine (C18:0,C18:1)” value (m14, male rats, Table 15d) was 0.69 *. The “Sphingomyelin (d18:1, C16:0)” value (m14, male rats, Table 15d) was 0.28 *, the “Sphingomyelin (d18:1,C23:0)” value (m14, male rats, Table 15d) was 0.76 and the “Sphingomyelin (d18:1,C24:0)” value (m14, male rats, Table 15d) was 0.47 *. For the same compound, the “Sphingomyelin (d18:2,C18:0)” value (m14, male rats, Table 15d) was 0.31 *, the “TAG No 02” value (m14, male rats, Table 15d) was 0.3 * and the “myo-Inositol, lipid fraction” value (m14, male rats, Table 15d) was 0.49 *. The Cholesterol (m14, Table 14b) was 0.41, the “Choline plasmalogen No 02” value (m14, Table 14b) was 0.64 and the “Lignoceric acid (C24:0)” value (m14, Table 14b) was 0.39. The “Sphingomyelin (d18:1, C16:0)” value (m14, Table 14b) was 0.28, the “Sphingomyelin (d18:2, C16:0)” value (m14, Table 14b) was 0.38 and the “erythro-Sphingosine (d18:1)” value (m14, Table 14b) was 0.21. The Mannose (m28, male rats) was 1.2 *, the “3,4-Dihydroxyphenylacetic acid (DOPAC)” value (m28, male rats, Table 15d) was 0.74 and the 18-Hydroxy-11-deoxycorticosterone (m28, male rats, Table 15d) was 0.55 *. For the same compound, the “Glycerol phosphate, lipid fraction” value (m28, male rats, Table 15d) was 0.47 *, the “Homovanillic acid (HVA)” value (m28, male rats, Table 15d) was 0.92 and the “Lysophosphatidylcholine (C18:1)” value (m28, male rats, Table 15d) was 0.73 *. The “Lysophosphatidylethanolamine (C22:5)” value (m28, male rats, Table 15d) was 0.77 *, the “Phosphate, lipid fraction” value (m28, male rats, Table 15d) was 0.6 * and the “Phosphatidylcholine (C18:0,C18:1)” value (m28, male rats, Table 15d) was 0.7 *. The “Sphingomyelin (d18:1, C16:0)” value (m28, male rats, Table 15d) was 0.27 *, the “Sphingomyelin (d18:1,C23:0)” value (m28, male rats, Table 15d) was 0.48 * and the “Sphingomyelin (d18:1,C24:0)” value (m28, male rats, Table 15d) was 0.44 *. For the same compound, the “Sphingomyelin (d18:2,C18:0)” value (m28, male rats, Table 15d) was 0.36 *, the “TAG No 02” value (m28, male rats, Table 15d) was 0.34 * and the “myo-Inositol, lipid fraction” value (m28, male rats, Table 15d) was 0.51 *. The Cholesterol (m28, Table 14b) was 0.39, the “Choline plasmalogen No 02” value (m28, Table 14b) was 0.49 and the “Lignoceric acid (C24:0)” value (m28, Table 14b) was 0.19. The “Sphingomyelin (d18:1, C16:0)” value (m28, Table 14b) was 0.27, the “Sphingomyelin (d18:2, C16:0)” value (m28, Table 14b) was 0.37 and the “erythro-Sphingosine (d18:1)” value (m28, Table 14b) was 0.19.
